Among the data in patent publication US20130295115A1, “COMPOSITIONS AND METHODS FOR TREATING […]” (priority 2010, published 2013) are VSV binding values, retold here.

The subject of the assay is VSV. It is filed as cell-based, Vesicular Stomatitis Virus.

Turning to Ammonium Iron(III) Citrate, the VSV binding result is reported as “no affect”.
